Experimental data as given in ChEMBL document CHEMBL5107958, “Phosphoramidate Prodrugs Continue to Deliver, The Journey of Remdesivir (GS-5734) from RSV to SARS-CoV-2” (ACS Med Chem Lett, 2022).

What was measured:
Measles morbillivirus = test: Antiviral activity against Measles Rec.rMVEZGFP(3) infected in human HeLa cells assessed as reduction in viral replication incubated for 48 to 144 hrs by fluorescence based assay; type: functional, organism-based
[1] = Volume of distribution at steady state in human at 2.5 mg/kg, iv; type: ADME, organism-based; conditions: in vivo, read-out: Vdss
[2] = AUC (0 to infinity) in human at 2.5 mg/kg, iv; type: ADME, organism-based; parameters: time infinity, dose 2.5 mg/kg, route iv; conditions: in vivo
[3] = test system: Middle East respiratory syndrome-related coronavirus; test: Potency index, ratio of EC50 of GS-441524 to EC50 of test compound for antiviral activity against MERS-CoV infected in HAE cells assessed as reduction in viral replication at MOI of 0.5 incubated for 3 hrs followed by virus removal measured after 48 hrs by Hoechst 33258 staining based assay; type: functional; conditions: time 51 hrs
SARS-CoV-2 [4] = test: Antiviral activity against SARS-CoV-2 infected in human A549 cells expressing hACE2 assessed as reduction in viral replication at MOI of 0.025 incubated for 48 hrs by luciferase based assay; type: functional, organism-based; conditions: Severe acute respiratory syndrome coronavirus 2, A549, 48 h
SARS-CoV-2 [5] = test: Antiviral activity against SARS-CoV-2 infected in human Huh-7 cells assessed as reduction in virus-induced cytopathic effect at MOI of 0.0037 measured after 4 days by MTS assay; type: functional, organism-based; conditions: Severe acute respiratory syndrome coronavirus 2, Huh-7, 96 h
SARS-CoV-2 [6] = test: Potency index, ratio of EC50 of GS-441524 to EC50 of test compound for antiviral activity SARS-CoV-2 infected in human Calu-3 2B4 cells assessed as reduction in viral replication at MOI of 0.01 preincubated for 2 hrs followed by viral infection for 30 mins and subsequent virus removal and addition of medium containing compound measured after 72 hrs by RT-qPCR analysis; type: functional, Severe acute respiratory syndrome coronavirus 2; conditions: time 74.5 hrs
[7] = test system: Middle East respiratory syndrome-related coronavirus; test: Antiviral activity against MERS-CoV infected in HAE cells assessed as reduction in viral replication at MOI of 0.5 incubated for 3 hrs followed by virus removal measured after 48 hrs by Hoechst 33258 staining based assay; type: functional, organism-based
SARS-CoV-2 [8] = test: Antiviral activity against SARS-CoV-2 infected in human PSC-derived lung epithelial cells assessed as reduction in viral replication; type: functional, organism-based; conditions: Severe acute respiratory syndrome coronavirus 2, Epithelial cell
[9] = Prodrug conversion in Normal human bronchial epithelial cells assessed as half life of triphosphate metabolite; type: ADME, cell-based; conditions: normal human bronchial epithelial cell
[10] = Volume of distribution at steady state in ferret at 10 mg/kg, iv; type: ADME, organism-based, Mustela putorius furo; conditions: in vivo, read-out: Vdss
[11] = Prodrug conversion in ferret lung assessed as triphosphate metabolite formation at 10 mg/kg, iv measured after 24 hrs; type: ADME, organism-based, Mustela putorius furo; conditions: in vivo
SARS-CoV-2 [12] = test: Potency index, ratio of EC50 of GS-441524 to EC50 of test compound for antiviral activity against SARS-CoV-2 infected in human A549 cells expressing hACE2 assessed as reduction in viral replication at MOI of 0.025 incubated for 48 hrs by luciferase based assay; type: functional, Severe acute respiratory syndrome coronavirus 2
Nipah virus = test: Potency index, ratio of EC50 of GS-441524 to EC50 of test compound for antiviral activity against Nipah B2004 infected in human NCI-H358 cells assessed as reduction in viral replication incubated for 48 to 144 hrs by reporter virus assay; type: functional, Henipavirus nipahense; conditions: time 48-144 hrs
SARS-CoV-2 [13] = test: Potency index, ratio of EC50 of GS-441524 to EC50 of test compound for antiviral activity against SARS-CoV-2 infected in human Calu-3 cells assessed as reduction in viral replication at MOI of 0.01 measured after 72 hrs by qRT-PCR analysis; type: functional, Severe acute respiratory syndrome coronavirus 2

## CCC(CC)OC(=O)[C@H](C)N[P@](=O)(OC[C@H]1O[C@@](C#N)(c2ccc3c(N)ncnn23)[C@H](O)[C@@H]1O)Oc1ccccc1
Measles morbillivirus
  EC50: 37 nM
[1]
  Vd: 1.22 L/kg
[2]
  AUC(0-inf): 5 µM·h
[3]
  Ratio: 12
SARS-CoV-2 [4]
  EC50: 115 nM
SARS-CoV-2 [5]
  EC50: < 1 nM
SARS-CoV-2 [6]
  Ratio: 2.2
[7]
  EC50: 74 nM
SARS-CoV-2 [8]
  EC50: 140 nM
[9]
  t1/2: 14 h
[10]
  Vd: 0.34 L/kg
[11]
  Drug metabolism: 1.28 nmol/g
SARS-CoV-2 [12]
  Ratio: 7.6
Nipah virus
  Ratio: 77
SARS-CoV-2 [13]
  Ratio: 2.4
